Measured values: US9539257B2, “Method of treating cancer” (NOVARTIS AG, priority 2009, dated 2017)

Key:
TNXB rs12153855 [1] = assay: ALT case-control genetic association, exploratory study; assay type: in vivo, human; settings: TNXB rs12153855 CC/CT
Excerpt: (§1) Germline DNA was extracted from peripheral blood (QiAmp DNA Blood Kit, Qiagen, Valencia, Calif.). This study evaluated candidate gene and genome-wide screening, performed in parallel, to detect case-control association signals in the exploratory cohort. Class I and II HLA genes (seven genes to 4-digit and three genes to 2-digit resolution) were typed by Laboratory Corporation of America (Burlington, N.C.) and Histogenetics (Ossining, N.Y.), or at GSK using the LABType® SSO Typing Test (One Lambda, Canoga Park, Calif.). […] Whole genome screen genotyping on the Illumina Human 1M-Duo platform was also conducted (Expression Analysis, Durham, N.C.).
(§2) For the exploratory study, initial analysis of the GWAS was done using logistic regression, carried out in PLINK (Purcell S, et al. American Journal of Human Genetics 2007; 81, 559-575) using the genotypic test option when three genotype classes were observed, or the additive test option when only two genotype classes were observed. […] In addition to the genotype term, all models included baseline ALT xULN, treatment group (for the exploratory study), and a sufficient number of principal components to account for potential confounding by population structure. Principal components were obtained from EIGENSOFT (Patterson N. et al. PLoS Genetics 2006; 2: e190), using study subjects and HapMap founders.
(§3) Genetic markers selected for confirmatory were required to achieve pre-defined p-value thresholds in the exploratory analysis of p≦0.05 for HLA markers, p≦0.01 for candidate gene markers and p≦10-4 for whole genome screen SNPs. For markers confirmed at p≦0.01, measures of potential clinical utility were evaluated. An allele or genotype(s) was designated which conferred a higher risk of ALT elevation and this was compared to the non-risk allele(s)/genotype(s) and the odds ratio (OR), positive predictive value (PPV), and negative predictive value (NPV) calculated.

HLA-DQA1*0201 = system: HLA-DQA1*0201
Excerpt: as §1, §2, §3

HLA-DQB1*0202 = settings: Exploratory study
Excerpt: as §1, §2, §3

HLA-DRB1*0701 = settings: Exploratory study
Excerpt: as §1, §2, §3

TNXB rs12153855 [2] = assay: ALT case-control genetic association, confirmatory study (lapatinib plus letrozole arm); assay type: in vivo, human; settings: TNXB rs12153855 CC/CT
Excerpt: as §1, §2, §3

DQA1*0201/DQB1*0201g = assay: ALT case/non-case association with DQ2.2 serotype allele combinations, confirmatory study; assay type: in vivo, human
Protocol: as §3
HLA Class II peptides form heterodimer proteins where DQA1/DQB1 and DRA/DRB1 combinations create discrete antigen binding sites (Jones E Y, et al. Nature Reviews: Immunology 2006; 6; 271-282). HLA-DRA is functionally monomorphic and no further marker discrimination can be gained by evaluating specific allelic combinations. In contrast, both DQA1*0201 and DQB1*0202 are polymorphic.

UGT1A1*28 [3] = settings: exploratory
Protocol: The two phenotypes that were evaluated were maximum on-treatment liver chemistry values for ALT and TBL with respect to the upper limit of normal. These phenotypes were evaluated separately in case-control and quantitative trait analyses and jointly in a combined case-control analysis. ALT and TBL cases were defined as maximum on-treatment elevations of ≧3×ULN and ≧1.5×ULN, respectively, and control subjects were defined as maximum on-treatment ALT or TBL of ≦1×ULN.
2) As genetic understanding of drug-induced liver injury is limited, a comprehensive drug induced liver injury (DILI) panel, developed by GSI in consultation with external liver experts was also evaluated. This DILI panel is comprised of approximately 6500 single nucleotide polymorphisms (SNPs) in 270 gene regions derived from the postulated mechanisms involved in the pathophysiology of DILI. In both approaches, genetic variation in each gene region was investigated using tag SNPs selected from the International HapMap project and/or high density SNP coverage consisting of all functional SNPs with a previously recorded genotype to phenotype correlation. […] Evaluation of HLA genes focused on a subset of the total number of patients consisting of all ALT cases (N=47) and matched controls (N=47).

UGT1A1*28 [4] = settings: confirmation analysis, lapatinib plus letrozole arm
Protocol: Statistical analyses used for this investigation indicated the following. The two phenotypes that were evaluated were maximum on-treatment liver chemistry values for ALT and TBL with respect to the upper limit of normal. These phenotypes were evaluated in both case-control and quantitative trait analyses while key associations were examined qualitatively in the combined ALT/TBL cases. ALT and TBL cases were defined as maximum on-treatment elevations of ≧3×ULN and ≧1.5×ULN, respectively, and control subjects were defined as maximum on-treatment ALT or TBL of ≦1×ULN. […] Approximately 370 patients with an adequate, fully consented DNA sample had available clinical data for these phenotypes.

HLA-B*4403 = settings: matched case-control
Protocol: The two phenotypes that were evaluated were maximum on-treatment liver chemistry values for ALT and TBL with respect to the upper limit of normal. These phenotypes were evaluated separately in case-control and quantitative trait analyses and jointly in a combined case-control analysis. ALT and TBL cases were defined as maximum on-treatment elevations of ≧3×ULN and ≧1.5×ULN, respectively, and control subjects were defined as maximum on-treatment ALT or TBL of ≦1×ULN. Approximately 950 patients with an adequate, fully consented DNA sample had available clinical data for these phenotypes. After subject genotyping quality control was completed, a total of 947 patients remained for pharmacogenetic analyses on at least one genetic variant.

[5] = cancer patients receiving lapatinib; cited from earlier work
[6] = On-treatment liver chemistry (ALT, TBL, ALP), exploratory study PGx population, twelve AMBC trials
[7] = DQA1*0201/DQB1*0201g carriage, cases vs non-cases, ALT > 3 xULN, Confirmatory study
[8] = DQA1*0201/DQB1*0201g, ALT > 3 xULN threshold, Confirmatory study
[9] = Exploratory Study ALT Cases (N=37)
[10] = Exploratory Study ALT Cases with HLA Data Available, at time of maximum ALT
[11] = Exploratory Study ALT Controls (N=286)
[12] = Exploratory Study PGx Population (12 trials, N=901), lapatinib monotherapy or combinations
[13] = Exploratory Study PGx Population (N=901)

SMILES: CS(=O)(=O)CCNCc1ccc(-c2ccc3ncnc(Nc4ccc(OCc5cccc(F)c5)c(Cl)c4)c3c2)o1 [lapatinib, N-(3 chloro-4-{[(3-fluorophenyl)methyl]oxy}phenyl)-6-[5-({[2 (methylsulfonyl)ethyl]amino}methyl)-2-furanyl]-4-quinazolinamine bis(4 methylbenzenesulfonate)monohydrate]
- Carriage: cases (%) (TNXB rs12153855 [1]; ALT cases): (35%)
- Carriage: cases (n/N) (TNXB rs12153855 [1]; ALT cases): 12/34
- Carriage: controls (%) (TNXB rs12153855 [1]; ALT controls): (17%)
- Carriage: controls (n/N) (TNXB rs12153855 [1]; ALT controls): 47/281
- Carriage: cases (n/N) (HLA-DQA1*0201; DQA1*0201 carriage, ALT cases (>3xULN), Exploratory study): 14/35
- Carriage: controls (n/N) (HLA-DQA1*0201; DQA1*0201 carriage, ALT controls, Exploratory study): 58/283
- % that carry DQA1*0201, Cholestatic (HLA-DQA1*0201; Exploratory Study ALT Cases): 25%
- % that carry DQA1*0201, Hepatocellular (HLA-DQA1*0201; Exploratory Study ALT Cases): 43%
- % that carry DQA1*0201, Mixed (HLA-DQA1*0201; Exploratory Study ALT Cases): 40%
- N that carry DQA1*0201, Cholestatic (HLA-DQA1*0201; Exploratory Study ALT Cases): 1
- N that carry DQA1*0201, Hepatocellular (HLA-DQA1*0201; Exploratory Study ALT Cases): 9
- N that carry DQA1*0201, Mixed (HLA-DQA1*0201; Exploratory Study ALT Cases): 4
- Carriage: cases (%) (HLA-DQB1*0202; ALT cases): (37%)
- Carriage: cases (n/N) (HLA-DQB1*0202; ALT cases): 13/35
- Carriage: controls (%) (HLA-DQB1*0202; ALT controls): (17%)
- Carriage: controls (n/N) (HLA-DQB1*0202; ALT controls): 47/281
- Carriage: cases (%) (HLA-DRB1*0701; ALT cases): (40%)
- Carriage: cases (n/N) (HLA-DRB1*0701; ALT cases): 14/35
- Carriage: controls (%) (HLA-DRB1*0701; ALT controls): (21%)
- Carriage: controls (n/N) (HLA-DRB1*0701; ALT controls): 59/283
- Carriage: cases (%) (TNXB rs12153855 [2]; ALT cases): (63%)
- Carriage: cases (n/N) (TNXB rs12153855 [2]; ALT cases): 15/24
- Carriage: controls (%) (TNXB rs12153855 [2]; ALT controls): (19%)
- Carriage: controls (n/N) (TNXB rs12153855 [2]; ALT controls): 29/155
- HLA Carrier: Cases (number) (DQA1*0201/DQB1*0201g; DQA1*0201/DQB1*0201g (DQ2.2 serotype), ALT Cases > 3 xULN, Confirmatory study): 17
- NPV (CI) (DQA1*0201/DQB1*0201g; [7]): 0.976 (0.951, 0.990)
- OR (CI) (DQA1*0201/DQB1*0201g; [7]): 10.2 (3.8, 30.0)
- PPV (CI) (DQA1*0201/DQB1*0201g; [7]): 0.20 (0.12, 0.30)
- HLA Carrier: Non Cases (number) (DQA1*0201/DQB1*0201g; [8]): 67
- HLA Non-Carrier: Non Cases (number) (DQA1*0201/DQB1*0201g; [8]): 281
- HLA Non-Carrier: Cases (number) (DQA1*0201/DQB1*0201g; DQA1*0201/DQB1*0201g, ALT Cases > 3 xULN, Confirmatory study): 7
- DQA1*0201/DQB1*0201g allele combinations in ALT cases (DQA1*0201/DQB1*0201g; confirmatory study (17/24)): 71%
- DQA1*0201/DQB1*0201g allele combinations in non-cases (DQA1*0201/DQB1*0201g; confirmatory study (67/348)): 19%
- TBL cases with TA7/TA7 genotype (UGT1A1*28 [3]; TBL cases (N=60)): Thirty five
- TBL cases with at least one TA7 allele (UGT1A1*28 [3]; TBL cases (N=60)): 82%
- TBL controls with TA7/TA7 genotype (UGT1A1*28 [3]; controls (N=396)): 5%
- TBL controls with at least one TA7 allele (UGT1A1*28 [3]; controls (N=396)): 48%
- TBL cases carrying TA7/TA7 genotype (UGT1A1*28 [4]; TBL cases >=1.5xULN (n=21)): 33%
- TBL controls carrying TA7/TA7 genotype (UGT1A1*28 [4]; controls (n=226)): 4%
- ALT cases carrying one copy of HLA-B*4403 (HLA-B*4403; 47 cases): Twenty three
- ALT controls carrying one copy of HLA-B*4403 (HLA-B*4403; 47 controls): 6%
- Grade 3 ALT elevation (Common Toxicity Criteria for Adverse Events, v4.0), patients affected [5]: 1.6%
- Hy's Rule events, patients affected [5]: 0.2%
- Maximum on treatment ALT xULN: Mean(SD) [6, 9]: 6.47(6.57) xULN
- Maximum on treatment ALT xULN: Median [6, 9]: 4.70 xULN
- N of ALT cases with Cholestatic injury type [6, 10]: 4
- N of ALT cases with Hepatocellular injury type [6, 10]: 21
- N of ALT cases with Mixed injury type [6, 10]: 10
- Maximum on treatment ALT xULN: Mean(SD) [6, 11]: 0.59(0.21) xULN
- Maximum on treatment ALT xULN: Median [6, 11]: 0.59 xULN
- Maximum on treatment ALT xULN: Mean(SD) [6, 12]: 1.29 (1.96) xULN
- Maximum on treatment ALT xULN: Median [6, 12]: 0.80 xULN
- Maximum on treatment ALP xULN: Mean(SD) [6, 13]: 1.34 (1.40) xULN
- Maximum on treatment ALP xULN: Median [6, 13]: 0.91 xULN
- Maximum on treatment ALT > 3 xULN (%) [6, 13]: 7.3%
- Maximum on treatment ALT > 5 xULN (%) [6, 13]: 2.7%
- Maximum on treatment ALT > 8 xULN (%) [6, 13]: 1.0%
- Maximum on treatment TBL xULN: Median [6, 13]: 0.68 xULN
